# Experimental data as given in patent US12702677B2 (priority 2008, dated 2026).
# Key:
# [1] = test system: matrix metalloproteinase 9 (MMP-9) expression; test: Quantikine Human MMP-9 (total) immunoassay, MMP-9 expression in influenza-A-infected Vero cells; assay type: cell-based, African Green Monkey; details: influenza A-infected Vero cell supernatants, FIGS. 5 and 6
# Experimental: A Quantikine Human MMP-9 (total) Immunoassay Assay, R&D Systems, was used to quantify expression of MMP-9 in infected cells according to the manufacturer's protocol, which is incorporated herein by reference.
# Vero cells were plated at 1e^5 cells/mL in a 100 uL volume in tissue culture treated 96 well plates. The following day cells were infected with virus at a multiplicity of infection of 10 and viral activity was measured. For testing compounds, cells were preincubated with compound 1 hr prior to infection. After overnight incubation, the cells were harvested, lysed, and supernatants were subjected to assay.
# This MMP-9 assay employs the quantitative sandwich enzyme immunoassay technique. A monoclonal antibody specific for MMP-9 has been pre-coated onto a microplate. Standards and samples are pipetted into the wells, and MMP-9 is bound by the immobilized antibody. After washing away unbound substances, an enzyme-linked polyclonal antibody specific for MMP-9 is added to the wells. Following a wash to remove unbound antibody-enzyme reagent, a substrate solution is added to the wells and color develops in proportion to the amount of total MMP-9 (pro and/or active) bound in the initial step. The color development is stopped and the intensity of the color is measured.
# Test formulations are shown in Example 5, Table 1. […]
# [2] = test system: A or B influenza virus; details: started during the first 48 hours after onset of symptoms; cited from earlier work
# [3] = adults; cited from earlier work
# [4] = animal studies, substantially high doses; cited from earlier work
compound,measurement,setting,value
"CCOC(=O)C1=C[C@@H](OC(CC)CC)[C@H](NC(C)=O)[C@@H](N)C1 [Formula T, oseltamivir phosphate]",inhibition of expression of MMP-9,[1],pronounced dose-dependent inhibition of expression of MMP-9
same,inhibition of expression of MMP-9,[1]; listed as Tamiflu®,inhibits expression of MMP-9
same,reduction of the duration of a typical seven day illness,[2],about one
"CC(=O)N[C@H]1[C@H]([C@H](O)[C@H](O)CO)OC(C(=O)O)=C[C@@H]1N=C(N)N [Relenza®, zanamivir]",reduction of the duration of a typical seven day illness,[2],about one
"Cc1ncc(CO)c(CO)c1O [Vitamin B6, Pyridoxine]",safe intake,[3],up to 200 mg per day
CC(N)C12CC3CC(CC(C3)C1)C2 (stereo not drawn) [rimantadine],teratogenicity and embryotoxicity,[4],teratogenic and embryotoxic
